According to article PMC11868579 (Nature Communications, 2024):

Columns and labels:
eIF4E:eIF4G interaction [1] = target: T1, eIF4E:eIF4G interaction (Homo sapiens, UniProt P06730); test: Electro-chemiluminescent binding assay, eIF4E:eIF4G, H1299 cell lysates; assay type: biochemical; design: endogenous in cells; host or cells: HeLa, SW620 or H1299 cells (lysates; intact H1299 cells in A13); conditions: for endogenous eIF4E:eIF4G interaction, electro-chemiluminescent signal, Average: n=3, 0 μM control in r69
Protocol: (§1) This assay uses plates with carbon electrodes and electro-chemiluminescent labels (SULFO-TAGs) that are conjugated to detection antibodies. When an electric current is applied to the plate electrodes the SULFO-TAG labels will emit light that is measured to quantify analytes in the sample. […] The plates were washed with 3 ×150 µl/well MSD wash buffer (cat#R61AA-1; 0.2% Tween-20 in PBS), then blocked with 150 µl/well block buffer (MSD, cat# R93AA) for 1 h. […] The incubated plates were washed 4x in 150 µl in MSD wash buffer and were re-blocked by the addition of 25 μl of blocking buffer containing a 1:500 dilution of the secondary antibody and incubated for 1 hr at RT with rotational shaking. […] Plates were then washed again 4x in 150 µl in MSD wash buffer and 25 μl of a 1:50 dilution of Goat anti-rabbit Sulfo-Tag (MSD, Cat# R32AB-1) in MSD blocking buffer was added and the plates incubated for 1 h at RT with rotational shaking. After a final wash step, 150 μl Read Buffer T4X (MSD, Cat# R92-TC2) was added and the plate read using the MSD QuickPlex SQ 120 plate reader.

[2] = target: T2, eIF4E major variant (D127) (Homo sapiens, UniProt P06730); assay type: binding
T2 construct: made in house; host or cells: E. coli (as described for clone 2983)
Protocol: ITC experiments were performed on either a MicroCal VP-ITC or a MicroCal Auto-ITC200 at 25 °C in a buffer comprising 50 mM HEPES, 100 mM NaCl, 1 mM TCEP and 5% DMSO at pH 7.5. Typical titrations on the MicroCal VP-ITC were performed using 17 × 16.4 µL injections with a 250 s spacing between each injection and with a stirring speed of 307 rpm. Typical titrations on the MicroCal Auto-ITC200 were performed using 12 × 3 µL injections with a 150 s spacing between each injection and with a stirring speed of 750 rpm. ITC data analyses were performed with Origin 7.0 software using the “One Set of Sites” model.

[3] = tested on: H1299 eIF4E-dTAG clones (C2-2, C3-1, N2-1, N3-2) and C3-1 rescue models; test: IncuCyte real-time cell growth of eIF4E-dTAG clones and rescue models; assay type: cell-based, human
Protocol: Real time monitoring of cell growth was performed with the IncuCyte ZOOM live cell imaging system (Essen BioSciences, USA). Cells were seeded in 96 well plates (Corning, cat#353072) and treated on the next day. The resulting phase-contrast images were analysed using IncuCyte ZOOM 2018A software and results were expressed as percentage confluency of cells.

eIF4E:eIF4G interaction [4] = target: T1, eIF4E:eIF4G interaction; test: Electro-chemiluminescent binding assay, eIF4E:eIF4G, HeLa cell lysates; assay type: biochemical; design: endogenous in cells; host or cells: HeLa cells (lysates); conditions: for binding of eIF4G or 4E-BP1 with eIF4E, luminescence normalised to DMSO control, Average: HeLa, n=3, Fig. 4e
Protocol: as §1

MCL1 protein expression = test: Immunoblot of MCL1 in eIF4E-dTAG clones and rescue models; assay type: cell-based, human; conditions: for Quantification of MCL1 immunoblot signals using Image J, Average: Cont = 100; for Quantification of MCL1 (6hr) immunoblot signal using Image J, Average: 0.5 μM, control = 100
Protocol: One sample t and Wilcoxon tests (two-sided), using 100% as hypothetical control value, were performed and compared with the control in each cell line. b, c Real-time cell growth measurements monitored every 4 h over a 6-day period. Cell confluency (%) was calculated using Incucyte Zoom software and (mean ± SEM n = 3 biological replicates). Ordinary one-way ANOVA with Tukey multiple comparisons test compared treatment with the control in each cell line. […] Vinculin was used as loading control. H1299 (PAR) cell lines were treated with 1 μM dTAG^V-1 only as qualitative control. Vinculin was used as loading control. […] Significant p-values (< 0.05) are shown on the plots and the source data is located in the Source Data file.
After seeding overnight in 6 well plates (Corning, cat#353046), cells were treated with compounds for the indicated times and concentration, harvested and the cell pellet lysed on ice in cell lysis buffer (Cell Signaling, cat#9803), supplemented with 1x Halt^TM protease inhibitor cocktail (Fisher Scientific, cat#78429) and cOmplete^TM protease inhibitor cocktail (Sigma-Aldrich, cat#11836153001) for 1 hr. Protein was quantified using BCA protein kit (Fisher Scientific, cat#23225). Western blot was performed using NuPAGE^TM 4–12% Bis-Tris gels (Fisher Scientific, cat#NP0336BOX) and transferred using the Invitrogen iBLOT^TM gel transfer device system (Fisher Scientific, Cat#IB21001). […] All primary antibodies were diluted (1:1000) in 5% BSA (Sigma-Aldrich, cat#A7906) in 1x TBS and 0.1% Tween 20 (Sigma-Aldrich, cat#P1379), except for vinculin (1:2000) that was diluted in casein blocker (Sigma-Aldrich, cat#1610782). This was followed by incubation with the secondary HRP-conjugated antibodies (anti-mouse HRP, Bio-rad, Watford, UK, cat#1705047; anti-rabbit HRP, Sigma-Aldrich, cat#NA934) in casein for 1 h at RT. ECL HRP substrate (SuperSignalTM West Pico, Fisher Scientific, cat#34578) was then added to detect protein targets by chemiluminescence and images acquired using the ChemiDocTM system (Bio-Rad). Quantitative densitometry analysis of protein bands was performed using Image J v1.53 software.

T1 sequence (P06730 2-217 limits assumed): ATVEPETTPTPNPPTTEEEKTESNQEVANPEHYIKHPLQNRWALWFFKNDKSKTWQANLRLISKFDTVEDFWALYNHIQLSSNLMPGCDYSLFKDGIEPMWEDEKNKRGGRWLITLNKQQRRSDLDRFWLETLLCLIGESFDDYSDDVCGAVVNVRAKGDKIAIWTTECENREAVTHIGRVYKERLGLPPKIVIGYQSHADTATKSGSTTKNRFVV
T2 sequence (P06730 with tags, fused parts or gaps): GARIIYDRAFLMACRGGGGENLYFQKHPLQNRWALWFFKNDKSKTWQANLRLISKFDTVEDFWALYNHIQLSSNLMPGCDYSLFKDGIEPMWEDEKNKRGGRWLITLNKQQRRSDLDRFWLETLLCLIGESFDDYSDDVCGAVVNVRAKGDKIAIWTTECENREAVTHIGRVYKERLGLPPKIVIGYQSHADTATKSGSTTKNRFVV

CC[C@@H](O[C@H](C)CO)c1ccc(-c2ccccc2F)cc1NCCO [Compound 5]
endogenous eIF4E:eIF4G interaction, electro-chemiluminescent signal, Average (eIF4E:eIF4G interaction [1]; 0.1 μM): 815674.7
endogenous eIF4E:eIF4G interaction, electro-chemiluminescent signal, Average (eIF4E:eIF4G interaction [1]; 1 μM): 773437.1
endogenous eIF4E:eIF4G interaction, electro-chemiluminescent signal, Average (eIF4E:eIF4G interaction [1]; 10 μM): 757778.5
inhibition of eIF4G:eIF4E binding (eIF4E:eIF4G interaction [1]; 100 µM): ~ 10%
endogenous eIF4E:eIF4G interaction, electro-chemiluminescent signal, Average (eIF4E:eIF4G interaction [1]; 100 μM): 644050.9
reduced binding affinity by ITC ([2]; compound 5 versus compound 4): 30 fold
LE (ligand efficiency) ([2]; major variant D127 (values in parentheses)): - (0.3) (kcal/mol)/heavy atom
Kd ([2]; read-out: eIF4E Kd, ITC, major variant D127 (values in parentheses)): 3000 nM
effects on cell growth, control combination ([3]; compound 5 with dTAG^V-1): no significant effects
effect on eIF4G binding (eIF4E:eIF4G interaction [4]; HeLa cell lysates): limited effect on eIF4G binding compared to 4
EC50 (eIF4E:eIF4G interaction [4]; HeLa cell lysates, n = 4, read-out: Inhibition of PPI in HeLa cells: eIF4E-eIF4G interaction): > 100000 nM
binding of eIF4G or 4E-BP1 with eIF4E, luminescence normalised to DMSO control, Average (eIF4E:eIF4G interaction [4]; Conc 0.03 μM): 75.0%
binding of eIF4G or 4E-BP1 with eIF4E, luminescence normalised to DMSO control, Average (eIF4E:eIF4G interaction [4]; Conc 0.1 μM): 70.5%
binding of eIF4G or 4E-BP1 with eIF4E, luminescence normalised to DMSO control, Average (eIF4E:eIF4G interaction [4]; Conc 0.3 μM): 80.4%
binding of eIF4G or 4E-BP1 with eIF4E, luminescence normalised to DMSO control, Average (eIF4E:eIF4G interaction [4]; Conc 1 μM): 86.3%
binding of eIF4G or 4E-BP1 with eIF4E, luminescence normalised to DMSO control, Average (eIF4E:eIF4G interaction [4]; Conc 3 μM): 81.2%
binding of eIF4G or 4E-BP1 with eIF4E, luminescence normalised to DMSO control, Average (eIF4E:eIF4G interaction [4]; Conc 10 μM): 84.0%
binding of eIF4G or 4E-BP1 with eIF4E, luminescence normalised to DMSO control, Average (eIF4E:eIF4G interaction [4]; Conc 30 μM): 77.0%
binding of eIF4G or 4E-BP1 with eIF4E, luminescence normalised to DMSO control, Average (eIF4E:eIF4G interaction [4]; Conc 100 μM): 75.2%
binding of eIF4G or 4E-BP1 with eIF4E, luminescence normalised to DMSO control, Average (eIF4E:eIF4G interaction [4]; Conc 300 μM): 79.2%
binding of eIF4G or 4E-BP1 with eIF4E, luminescence normalised to DMSO control, Average (eIF4E:eIF4G interaction [4]; Conc 1000 μM): 79.6%

CC[C@H](C(=O)N1CCCC[C@H]1C(=O)O[C@H](CCc1ccc(OC)c(OC)c1)c1ccccc1OCC(=O)NCCCCCCC(=O)N[C@H](C(=O)N1C[C@H](O)C[C@H]1C(=O)N[C@@H](C)c1ccc(-c2scnc2C)cc1)C(C)(C)C)c1cc(OC)c(OC)c(OC)c1 [dTAG^V-1]
growth of eIF4E-dTAG clones ([3]; treatment for 6 days, 0.5 or 1 µM): inhibited growth of all 4 clones
Quantification of MCL1 immunoblot signals using Image J, Average (MCL1 protein expression; C3-1 + WT eIF4E, 0.5 uM, n=3): 116.17
Quantification of MCL1 immunoblot signals using Image J, Average (MCL1 protein expression; C3-1 + WT eIF4E, 1 uM, n=3): 110.20
Quantification of MCL1 (6hr) immunoblot signal using Image J, Average (MCL1 protein expression; C3-1, n=3): 44
Quantification of MCL1 immunoblot signals using Image J, Average (MCL1 protein expression; C3-1, 0.5 uM, n=3): 39.67
Quantification of MCL1 immunoblot signals using Image J, Average (MCL1 protein expression; C3-1, 1 uM, n=3): 38.77
Quantification of MCL1 immunoblot signals using Image J, Average (MCL1 protein expression; L85R, 0.5 uM, n=3): 69.30
Quantification of MCL1 immunoblot signals using Image J, Average (MCL1 protein expression; L85R, 1 uM, n=3): 57.73
Quantification of MCL1 immunoblot signals using Image J, Average (MCL1 protein expression; L134R, 0.5 uM, n=3): 63.30
Quantification of MCL1 immunoblot signals using Image J, Average (MCL1 protein expression; L134R, 1 uM, n=3): 50.60
Quantification of MCL1 (6hr) immunoblot signal using Image J, Average (MCL1 protein expression; S209A rescue, n=3): 117
Quantification of MCL1 immunoblot signals using Image J, Average (MCL1 protein expression; S209A, 0.5 uM, n=3): 104.13
Quantification of MCL1 immunoblot signals using Image J, Average (MCL1 protein expression; S209A, 1 uM, n=3): 110.17
Quantification of MCL1 (6hr) immunoblot signal using Image J, Average (MCL1 protein expression; W56A rescue, n=3): 49
Quantification of MCL1 immunoblot signals using Image J, Average (MCL1 protein expression; W56A, 0.5 uM, two experiments): 55.95
Quantification of MCL1 immunoblot signals using Image J, Average (MCL1 protein expression; W56A, 1 uM, n=3): 64.70
Quantification of MCL1 immunoblot signals using Image J, Average (MCL1 protein expression; W73F/L85R, 0.5 uM, n=3): 57.83
Quantification of MCL1 immunoblot signals using Image J, Average (MCL1 protein expression; W73F/L85R, 1 uM, n=3): 56.77
Quantification of MCL1 immunoblot signals using Image J, Average (MCL1 protein expression; W73F, 0.5 uM, n=3): 92.60
Quantification of MCL1 immunoblot signals using Image J, Average (MCL1 protein expression; W73F, 1 uM, n=3): 99.57
Quantification of MCL1 (6hr) immunoblot signal using Image J, Average (MCL1 protein expression; WT rescue, n=3): 99
MCL1 protein after treatment (MCL1 protein expression; eIF4E-dTAG clones): decrease in MCL1 protein
